Laboratory results as given in patent publication US9683254B2, “Compositions and methods for identifying enzyme and transport protein inhibitors” (San Diego State University (SDSU) Foundation, priority 2010, dated 2017).

Assays:
SupT1 cells = assay: Cell death in the reporter T-cell clones during PI concentration response; settings: for concentration resulting in significant cell death, with decline in number of eGFP positive cells: human, 50 h
Method: (§1) The range chosen extended from 1 nM to 20 μM.
Cells were then analyzed 50 hrs later for eGFP expression as determined by flow cytometry on a BD FACSAria.

HIV-1 PR [1] = target: T1, HIV-1 PR (Human immunodeficiency virus type 1 group M subtype B, UniProt P04585); type: cell-based; set-up: expressed in transfected cells; host or cells: SupT1 T-cell clone (lentiviral transduction; rtTA/mCherry, 5xUAS-eGFP reporter, inducible PR/Gal4); settings: for concentration resulting in eGFP activation: analyzed 50 hrs, range tested 1 nM to 20 μM
Method: Finally, cells were infected with virus encoding the reporter, rtTA and inducible wild-type PR/Gal4 (pH-TRE-PR/Gal4) to test the ability for this system in T-cells to indicate the levels of PR activity.
To determine the optimal time point for the analysis of eGFP expression in the presence of inhibitor, cells were activated with Dox and analyzed by flow cytometry 4, 8, 12, 16, 20, 25, 50, or 75 hours later. Six-well plates containing 250K cells per well in 3 mL media were treated either with DMSO alone as control, or 1 μg/mL Dox and 10 μM Indinavir.
as §1
Flow Cytometry was performed on a BD FACSAria™ with 488 nm and 633 nm lasers. Data was collected on FACSDiva 6.1.1™ software and then exported to FlowJo™. eGFP expression was detected in the FITC channel and mCherry expression was detected on the PE-Texas-Red channel. Cells were first gated for size and granularity (FSC-A vs SSC-A) followed by doublet gating (FSC-A vs FSC-W and SSC-A vs. SSC-W). Sorted populations were gated on PE-TexasRed vs FITC plot. 250K cells were collected for each sample into 0.5 mL fetal calf serum (FCS) and 1 mL RPMI. Cells were then spun down at 1500 RPM and resuspended in fresh media in 6-well plates. Cells were allowed to grow for at least seven days to allow for expansion and loss of previously activated eGFP expression.
FIG. 21A (upper left) schematically illustrates exemplary constructs utilized to generate infectious particles for the transduction of SupT1 cells with the various assay elements. FIG. 21B (right) illustrates data from a cell sorting assay comprising: a previously generated stable SupT1 cell line expressing rtTA and mCherry was infected with the reporter virus (generated from pH-5×UAS-eGFP), or co-infected with the reporter virus plus a virus encoding an inducible assay element (generated from pH-TRE-Gal4, pH-TRE-PR/Gal4, or pH-TRE-PRm/Gal4). Cells were then activated with either 1 μg/mL of Dox alone, or were pre-incubated for 5 minutes with 10 μM Indinavir following activation with 1 μg/mL Dox. […] Finally, single SupT1 cells from the purified population were sorted into 96 well plates and grown as a monoclonal population and then tested for optimal responses to assay induction of eGFP under appropriate conditions. FIG. 21C (lower left) illustrates images of fluorescence microscopy of SupT1 clones expressing the assay elements. Cells expressing various elements of the assay were treated as indicated with DMSO, DMSO+1 μg/mL Dox, or […] Dox+10 μM Indinavir and analyzed 24 hours later by fluorescence microscopy for mCherry and eGFP expression. D. Quantification of eGFP expression of clonal SupT1 cells treated with DMSO, DMSO+1 μg/mL Dox, or 1 μg/mL Dox+10 μM Indinavir.
(§2) FIG. 22 graphically illustrates data determining the optimal conditions for activating the assay to screen for PR inhibition. FIG. 22A graphically illustrates a Doxycycline titration. Clonal SupT1 cells harboring an inducible Gal4, PR/Gal4 or PRm/Gal4 were pre-incubated in a 96 well plate with either DMSO or 10 μM Indinavir and then either left untreated, or activated with […] of Dox. Cells were analyzed by flow cytometry and gated to determine the number of cells positive for eGFP expression. FIG. 22B graphically illustrates a time course of eGFP Induction in response to Doxycyline activation in the presence of DMSO or a PI.

[2] = tested on: tet-responsive element (TRE); assay: Doxycycline activation titration of clonal SupT1 cells (Tet-On, eGFP readout); type: cell-based
Method: In order to optimize the assay for maximal Gal4, PR/Gal4 or PRm/Gal4 induction, we analyzed the effect of increasing levels of Dox. Cells with 0, 50, 100, 250, 500, 750, 1,000, and 2,000 ng/mL Dox were either treated with 10 uM DMSO or 10 uM Indinavir and analyzed 32 hours later. TRE-Gal4 cells reached saturation with Doxycycline at about 1,000 ng/mL whether Indinavir was present or not. […] Again, as with transiently transfected 293 cells, TRE-PR/Gal4 cells had little to non-detectable eGFP expression at any given Dox concentration in the absence of 10 μM Indinavir.
as §2, with “PI. SupT1 clones harboring Gal4, PR/Gal4, or PRm/Gal4 were pre-incubated in a 96 well plate with either DMSO or 10 μM Indinavir and then activated with 1 μg/mL Dox. Cells were analyzed at either 4, 8, 12, 16, 20, 25, 50 or 75 hours by flow cytometry and gated for eGFP positive expression.” for “PI.”

HIV-1 PR [3] = target: T1, HIV-1 PR; type: cell-based; set-up: expressed in transfected cells; rtTA/mCherry, 5xUAS-eGFP reporter, inducible PR/Gal4; settings: HEK293T cells pre-treated with 10 uM inhibitor, co-transfected with reporter and pcDNA-PR/Gal4
Method: It was of critical importance to verify the ability for the PR/Gal4 fusion to activate the reporter eGFP by the addition of PR inhibitors. For that purpose, 293T cells were pre-treated with 10 μM Indinavir and then co-transfected with reporter and pcDNA-PR/Gal4 vectors.
293T cells were transfected as follows. 15 μl of 2 mg/mL Polyethylenimine linear 25 kD (Polysciences, Inc.) were added to 125 μl of DMEM in a 1.8 ml Eppendorf tube. 3 g of each DNA was added drop-wise to each tube. Tubes were mixed and incubated for 20 min at RT. This mixture was then added drop-wise to 293T cells in a 10 cm plate at approximately 60-75% confluence. Cells were then analyzed by fluorescence microscopy and/or flow cytometry 24 hrs post transfection.
Top Panel: Fluorescence microscopy of eGFP expression in HEK293T cells 24 hours post transfection with the reporter vector (pFR), or co-transfection with the reporter vector plus either the Gal4, PR/Gal4, or PRm/Gal4 vectors. Bottom panel: HEK293T cells were analyzed by flow cytometry at 24 hours post transfection with the same conditions top panel. Gates were drawn to determine the ability to identify cells with an active PI. […] Quantification of eGFP expression in HEK293T transfected with various assay elements. The numbers of cells under various conditions were quantified for eGFP levels indicative of PR inhibition. Results shown are an average of 3 experiments.

HIV-1 PR [4] = target: T1, HIV-1 PR; type: cell-based; set-up: expressed in transfected cells; host or cells: SupT1 T-cell clone (lentiviral transduction; rtTA/mCherry, 5xUAS-eGFP reporter, inducible PR/Gal4); settings: clonal SupT1, 96-well plates, pre-incubation with 1 μM PI, activation at 1 μg/mL Dox
[5] = SupT1 PR/Gal4 clone, 1 μg/mL Dox, 50 hrs
[6] = SupT1 PR/Gal4 clone, 1 μg/mL Dox

For Cc1c(O)cccc1C(=O)N[C@@H](CSc1ccccc1)[C@H](O)CN1C[C@H]2CCCC[C@H]2C[C@H]1C(=O)NC(C)(C)C [Nelfinavir], the “concentration resulting in significant cell death, with decline in number of eGFP positive cells” value (SupT1 cells) was “around 1 uM”.

For CC(C)CN(C[C@@H](O)[C@H](Cc1ccccc1)NC(=O)O[C@H]1CO[C@H]2OCC[C@H]21)S(=O)(=O)c1ccc(N)cc1 [Darunavir], the “effect on PR inhibition (ranking among tested PIs)” value (HIV-1 PR [1]; [5]) was “strongest effect” and the “concentration resulting in eGFP activation” value (HIV-1 PR [1]; [6]) was 1 nM.

Cc1cccc(C)c1OCC(=O)N[C@@H](Cc1ccccc1)[C@@H](O)C[C@H](Cc1ccccc1)NC(=O)[C@H](C(C)C)N1CCCNC1=O [Lopinavir] was tested, and the “concentration resulting in significant cell death, with decline in number of eGFP positive cells” value (SupT1 cells) was “around 1 uM”.

For C[C@H]1c2cccc(O)c2C(=O)C2=C(O)[C@]3(O)C(=O)C(C(N)=O)=C(O)[C@@H](N(C)C)[C@@H]3[C@@H](O)[C@@H]21 [Doxycycline], the “concentration at saturation of eGFP induction, TRE-Gal4 cells” value ([2]; clonal SupT1 TRE-Gal4, with or without 10 uM Indinavir, 32 hours) was “about 1,000 ng/mL”, the “concentration at maximal eGFP induction, TRE-PR/Gal4 cells” value ([2]; clonal SupT1 TRE-PR/Gal4, pre-incubation with 10 μM Indinavir, 32 hours) was “around 500 ng/mL” and the “concentration at saturation of eGFP induction, TRE-PRm/Gal4 cells” value ([2]; clonal SupT1 TRE-PRm/Gal4, uninhibited and Indinavir-treated, 32 hours) was “around 250 ng/mL”. The “concentration at which activation is saturated (FIG. 33)” value ([2]; clonal SupT1 cells pre-incubated with DMSO or 1 μM Indinavir) was “around 1 μg/mL”.

CC(C)(C)NC(=O)[C@@H]1C[C@@H]2CCCC[C@@H]2CN1C[C@@H](O)[C@H](Cc1ccccc1)NC(=O)[C@H](CC(N)=O)NC(=O)c1ccc2ccccc2n1 [Saquinavir] was tested, and the “concentration with significant cell death / decline in number of eGFP positive cells” value (SupT1 cells; SupT1 PR/Gal4 clone, 50 hrs, maximal level tested) was 20 µM.

For COC(=O)N[C@H](C(=O)N[C@@H](Cc1ccccc1)[C@@H](O)CN(Cc1ccc(-c2ccccn2)cc1)NC(=O)[C@@H](NC(=O)OC)C(C)(C)C)C(C)(C)C [Atazanavir], the “effect on PR inhibition (ranking among tested PIs)” value (HIV-1 PR [1]; [5]) was “strongest effect” and the “concentration resulting in eGFP activation” value (HIV-1 PR [1]; [6]) was 1 nM.

For CC(C)(C)NC(=O)[C@@H]1CN(Cc2cccnc2)CCN1C[C@@H](O)C[C@@H](Cc1ccccc1)C(=O)N[C@H]1c2ccccc2C[C@H]1O [Indinavir], the “eGFP expression (reporter activation by PR/Gal4)” value (HIV-1 PR [3]) was “drastic induction”, the “concentration inducing nearly full activation of reporter” value (HIV-1 PR [1]; [5]) was 5 µM and the “levels of reporter activation at low concentrations (ranking among tested PIs)” value (HIV-1 PR [1]; [5]) was “lowest levels”. The “activation of PR/Gal4 clones (FIG. 31)” value (HIV-1 PR [1]; SupT1 PR/Gal4 clones, Dox 1 μg/mL, PI 1 μM, <1% background) was ~90%, the “time of initial induction of eGFP expression” value (HIV-1 PR [1]; clonal SupT1, 1 μg/mL Dox and 10 μM inhibitor) was 8 h and the “eGFP expression (% of cells) at 50 hours” value (HIV-1 PR [1]; clonal SupT1, 1 μg/mL Dox and 10 μM inhibitor, by 50 hours) was ~100%. For the same molecule, the eGFP expression (HIV-1 PR [1]; non-clonal SupT1 cells with reporter, rtTA and pH-TRE-PR/Gal4, 1 μg/mL Dox and 10 μM inhibitor) was “large induction” and the “time at which activation of clones reaches max (FIG. 34)” value (HIV-1 PR [4]) was “around 48 hrs”.
